Legend:
PfGSK3 [1] = target: T1, PfGSK3 (Plasmodium falciparum, UniProt O77344); test: KinaseGlo Plus luminescence ATP consumption (autophosphorylation); type: biochemical; settings: 30 µM ATP, no peptide substrate; 20 mM MgCl2; pH 7.5; 30 °C
T1 construct: gene PF3D7_0312400
T1 sequence (O77344 1-440): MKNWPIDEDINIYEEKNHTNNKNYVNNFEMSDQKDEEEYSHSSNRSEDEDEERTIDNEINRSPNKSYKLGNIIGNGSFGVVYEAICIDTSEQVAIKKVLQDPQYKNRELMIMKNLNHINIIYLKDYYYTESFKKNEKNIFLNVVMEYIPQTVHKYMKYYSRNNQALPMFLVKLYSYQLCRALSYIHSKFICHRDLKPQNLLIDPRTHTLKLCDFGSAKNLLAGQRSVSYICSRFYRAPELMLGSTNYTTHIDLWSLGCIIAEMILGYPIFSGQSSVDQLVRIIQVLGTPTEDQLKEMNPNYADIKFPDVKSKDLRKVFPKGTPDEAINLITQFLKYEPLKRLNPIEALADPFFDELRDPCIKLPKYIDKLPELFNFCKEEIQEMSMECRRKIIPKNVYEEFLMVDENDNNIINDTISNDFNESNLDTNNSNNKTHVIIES

PfGSK3 [2] = target: T1, PfGSK3; test: nanoDSF thermal shift; type: binding; settings: 1 mg/ml protein; 6 mM dATP in Figure 2B; concentration series in supplement; heating 1 °C/min

Row | Compound | KinaseGlo Plus luminescence ATP consumption (autophosphorylation) (PfGSK3 [1]) | Tm (PfGSK3 [2])
1 | Nc1ncnc2c1ncn2[C@@H]1O[C@H](COP(=O)(O)OP(=O)(O)OP(=O)(O)O)[C@@H](O)[C@H]1O [ATP] | The assay showed the consumption of ATP even in the absence of the substrate peptide | –
2 | Nc1ncnc2c1ncn2[C@H]1C[C@H](O)[C@@H](COP(=O)(O)OP(=O)(O)OP(=O)(O)O)O1 [dATP] | – | dATP stabilizes PfGSK3, suggesting that it binds in the ATP binding pocket

Source: publication PMC8883495, “N-terminal phosphorylation regulates the activity of glycogen synthase kinase 3 from Plasmodium falciparum” (Biochemical Journal, 2022)
